{"source": "patent US10278979B2", "about": "“Therapeutic agent for intractable leukemia” (RIKEN, priority 2015, dated 2019)", "key": {"[1]": {"test_system": "MLL cells (MLL-AF9 ALL cell) in the bone marrow", "assay": "Leukemia humanized mouse (MLL-AF9), human leukemia cells in bone marrow (flow cytometry, hCD45/DAB staining)", "format": "in vivo", "details": "MLL-AF9 case; after treatment; FIG. 4", "source_text": "(§1) NOD. Cg-Prkdc^scid Il2rg^tmlWjl/Sz (NOD/SCID/IL2rg^null, NSG) mice were developed by subjecting a complete null mutation in the Il2rg gene locus to back cross with NOD. Cg-Prkdc^scid (NOD/SCID) lineage, in the Jackson Laboratory (Bar Harbor, Me. state, USA) (Shultz, L. D. et al., Multiple defects in innate and adaptive immunologic function in NOD/LtSz-scid mouse. J. Immunol. 154, 180-191 (1995)). The mice were raised by feeding irradiated food and acidified water in the animal facilities of RIKEN and the Jackson Laboratory in accordance with the guideline established by the Institutional Animal Committees and maintained under bacterial flora specified.\n(§2) NSG mice in the neonatal period were exposed to radiation (1.5 G) and then patient-derived MLL cells (MLL-AF9) were transplanted to the mice. After the presence of the human leukemia cells in the peripheral blood was confirmed by flow cytometry based on the presence of hCD45+CD19+, treatment of the mice (leukemia humanized mice) with dexamethasone (70 mg/kg IP daily) and/or RK-20449 (30 mg/kg IP BID, twice a day) or both was started.\nAfter the treatment, the mice were euthanized and the appearance frequency of human leukemia cells in the bone marrow was determined by flow cytometry. At the same time, one of the femur bones was fixed in PFA and […]-thin sections were prepared. […]"}, "[2]": {"test_system": "MLL cells (MLL-AF9 ALL cells)", "assay": "Secondary transplantation of MLL cells remaining after treatment into neonatal NSG mice", "format": "in vivo, mouse", "details": "cells taken from treated primary recipient, FIG. 7", "source_text": "Finally, human leukemia cells remaining in the bone marrow were purified by sorting and transplanted to neonatal NSG mice (secondary transplantation).\nMLL cells (MLL-AF9 ALL cells) were transplanted (primary transplant) to an immunodeficient mouse and a treatment with a combination of dexamethasone and RK-20449 was applied. Thereafter, MLL cells were taken from the mouse and transplanted to another immunodeficient mouse (secondary transplantation). The results are shown in the graphs as FIG. 7. The cases treated with dexamethasone alone and RK-20449 alone were used as controls (for comparison)."}, "[3]": {"test_system": "patient-derived MLL cells (MLL-AF9)", "assay": "Leukemia humanized mouse (MLL-AF9), human leukemia cells in peripheral blood", "format": "in vivo", "details": "MLL-AF9 cases in NSG mice; dexamethasone 70 mg/kg IP daily and/or RK-20449 30 mg/kg IP BID; FIG. 1-3", "source_text": "as §1, §2"}}, "note": "Entries after “also recorded” stand apart in the source; their conditions may differ."}
{"smiles": "CN1CCN([C@H]2CC[C@H](n3cc(-c4ccc(Oc5ccccc5)cc4)c4c(N)ncnc43)CC2)CC1", "note": "[RK-20449, 7-[trans-4-(4-methyl-1-piperazinyl)cyclohexyl]-5-(4-phenoxyphenyl)-7H-pyrrolo[2,3-d]pyrimidin-4-amine]", "values": [{"measurement": "medicinal effect in the bone marrow (appearance frequency of human leukemia cells, flow cytometry)", "setting": "[1]", "value": "A sufficient therapeutic effect was not obtained"}, {"measurement": "MLL cells in secondary transplantation recipient (proliferation after transplantation)", "setting": "[2]", "value": "MLL cells were present in significantly high percentages"}, {"measurement": "chimerism (percentage) of human leukemia cells in the mouse peripheral blood", "setting": "[3]", "value": "not easy to eradicate MLL by single use; also recorded: impossible to expect complete cure of MLL"}]}
